# Measured values: ChEMBL document CHEMBL1201862, “PubChem BioAssay data set” (2004)
#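 Five concentrations, 48 hours, 96-well plates. GI50 = concentration required for 50% inhibition of growth.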 The source made the active and inactive calls. No stated cut-off is given here; in the data, active = GI50 up to about 1.1 µM and inactive = higher.
# Columns and labels:
# Assay in all cases: growth of human tumour cells (NCI), 48 h
# [1] = tested on: DU-145
# [2] = tested on: HOP-92
# [3] = tested on: MCF7
# [4] = tested on: MDA-MB-231
# [5] = tested on: MDA-N
# [6] = tested on: NCI-H226
# [7] = tested on: OVCAR-5
# [8] = tested on: OVCAR-8
# [9] = tested on: PC-3
# [10] = tested on: SF-268
# [11] = tested on: SF-539
# [12] = tested on: SK-MEL-28
# [13] = tested on: SK-MEL-2
# [14] = tested on: SN12C
# [15] = tested on: SR
# [16] = tested on: SW-620
# [17] = tested on: TK-10
# [18] = tested on: U-251
# [19] = tested on: HCC 2998
Structure (SMILES),GI50 [1],GI50 [2],GI50 [3],GI50 [4],GI50 [5],GI50 [6],GI50 [7],GI50 [8],GI50 [9],GI50 [10],GI50 [11],GI50 [12],GI50 [13],GI50 [14],GI50 [15],GI50 [16],GI50 [17],GI50 [18],GI50 [19]
CCN(CC)C(=S)N/N=C1\C(=O)Nc2ccccc21,> 100 µM (inactive),2.79 µM (inactive),0.397 µM (active),1.14 µM (inactive),2.01 µM (inactive),0.59 µM (active),6.18 µM (inactive),0.813 µM (active),0.334 µM (active),> 100 µM (inactive),0.468 µM (active),> 100 µM (inactive),2.65 µM (inactive),1.46 µM (inactive),0.968 µM (active),0.493 µM (active),0.348 µM (active),1.41 µM (inactive),–
Cc1cn(C2OC(CO)C(O)C2F)c(=O)[nH]c1=O (centres undefined),70.1 µM (inactive),> 100 µM (inactive),> 100 µM (inactive),> 100 µM (inactive),> 100 µM (inactive),> 100 µM (inactive),> 100 µM (inactive),> 100 µM (inactive),> 100 µM (inactive),> 100 µM (inactive),> 100 µM (inactive),> 100 µM (inactive),> 100 µM (inactive),> 100 µM (inactive),–,> 100 µM (inactive),> 100 µM (inactive),> 100 µM (inactive),> 100 µM (inactive)
Cc1cc(N)c2cc(NC(=O)Nc3ccc4nc(C)cc(N)c4c3)ccc2n1,> 100 µM (inactive),> 100 µM (inactive),> 100 µM (inactive),47.8 µM (inactive),> 100 µM (inactive),> 100 µM (inactive),> 100 µM (inactive),> 100 µM (inactive),> 100 µM (inactive),> 100 µM (inactive),–,> 100 µM (inactive),> 100 µM (inactive),> 100 µM (inactive),–,> 100 µM (inactive),> 100 µM (inactive),70.6 µM (inactive),> 100 µM (inactive)
CN1c2ccccc2C2=C(c3ccccc3)CC[C@@H](C(=O)N3C4CC5CC[C@@]4(CS3(=O)=O)C5(C)C)[C@@H]21 (some centres undefined),> 100 µM (inactive),> 100 µM (inactive),> 100 µM (inactive),> 100 µM (inactive),> 100 µM (inactive),> 100 µM (inactive),> 100 µM (inactive),> 100 µM (inactive),4.1 µM (inactive),> 100 µM (inactive),> 100 µM (inactive),> 100 µM (inactive),–,> 100 µM (inactive),> 100 µM (inactive),> 100 µM (inactive),> 100 µM (inactive),> 100 µM (inactive),–
O=C1NC(Nc2ccccc2Cl)=N/C1=C\c1c(Cl)cccc1Cl,37.2 µM (inactive),19.9 µM (inactive),28.7 µM (inactive),–,16.5 µM (inactive),42.5 µM (inactive),30 µM (inactive),31.6 µM (inactive),25.1 µM (inactive),31.1 µM (inactive),51.5 µM (inactive),51.8 µM (inactive),28.8 µM (inactive),28.2 µM (inactive),5.52 µM (inactive),37.5 µM (inactive),30.9 µM (inactive),8.43 µM (inactive),21.9 µM (inactive)
NC(=S)NC/C=C/Cl,> 100 µM (inactive),> 100 µM (inactive),> 100 µM (inactive),> 100 µM (inactive),> 100 µM (inactive),> 100 µM (inactive),> 100 µM (inactive),> 100 µM (inactive),> 100 µM (inactive),–,–,–,> 100 µM (inactive),–,> 100 µM (inactive),> 100 µM (inactive),> 100 µM (inactive),–,–
CC(C)Cn1cnnc1NS(=O)(=O)c1cc(C(=O)NN)c(Cl)cc1S,> 10 µM (inactive),> 10 µM (inactive),> 10 µM (inactive),> 10 µM (inactive),> 10 µM (inactive),> 10 µM (inactive),> 10 µM (inactive),> 10 µM (inactive),> 10 µM (inactive),> 10 µM (inactive),> 10 µM (inactive),> 10 µM (inactive),> 10 µM (inactive),> 10 µM (inactive),–,> 10 µM (inactive),> 10 µM (inactive),> 10 µM (inactive),> 10 µM (inactive)
NC1CC(Cl)c2c(Cl)sc(Cl)c21 (centres undefined),> 100 µM (inactive),> 100 µM (inactive),> 100 µM (inactive),> 100 µM (inactive),> 100 µM (inactive),> 100 µM (inactive),> 100 µM (inactive),> 100 µM (inactive),–,> 100 µM (inactive),> 100 µM (inactive),> 100 µM (inactive),> 100 µM (inactive),> 100 µM (inactive),61.8 µM (inactive),> 100 µM (inactive),> 100 µM (inactive),> 100 µM (inactive),53.2 µM (inactive)
Cc1nn(C(=O)Cc2ccccc2)c2c1C(c1ccc([N+](=O)[O-])cc1)SC(=N)N2 (centres undefined),> 100 µM (inactive),–,> 100 µM (inactive),> 100 µM (inactive),> 100 µM (inactive),–,–,> 100 µM (inactive),> 100 µM (inactive),> 100 µM (inactive),> 100 µM (inactive),> 100 µM (inactive),–,> 100 µM (inactive),> 100 µM (inactive),> 100 µM (inactive),> 100 µM (inactive),–,> 100 µM (inactive)
c1ccc(CN2CCC3(CC2)SSC2(CCN(Cc4ccccc4)CC2)S3)cc1,> 100 µM (inactive),> 100 µM (inactive),–,> 100 µM (inactive),44.7 µM (inactive),–,85.3 µM (inactive),> 100 µM (inactive),> 100 µM (inactive),–,> 100 µM (inactive),44 µM (inactive),76.7 µM (inactive),87.1 µM (inactive),28.8 µM (inactive),> 100 µM (inactive),64.4 µM (inactive),> 100 µM (inactive),26.9 µM (inactive)
Nc1nc(N)c2cc(-c3cc4ccccc4[nH]3)ccc2n1,21.3 µM (inactive),12.2 µM (inactive),18.1 µM (inactive),17.2 µM (inactive),19.8 µM (inactive),27.7 µM (inactive),18.6 µM (inactive),32.5 µM (inactive),26.2 µM (inactive),22.2 µM (inactive),19.5 µM (inactive),22.2 µM (inactive),18.2 µM (inactive),33 µM (inactive),30.2 µM (inactive),30.8 µM (inactive),17.7 µM (inactive),30.4 µM (inactive),–
COc1c(F)c(F)c(C(=O)/C=C2\Nc3ccccc3NC2=O)c(F)c1F,> 10 µM (inactive),> 10 µM (inactive),> 10 µM (inactive),> 10 µM (inactive),> 10 µM (inactive),–,–,3.79 µM (inactive),7.57 µM (inactive),9.1 µM (inactive),–,6.81 µM (inactive),–,> 10 µM (inactive),> 10 µM (inactive),8.38 µM (inactive),> 10 µM (inactive),–,> 10 µM (inactive)
COC(=O)[C@@H]1CCc2nc3ccccc3c(=O)n21,> 100 µM (inactive),> 100 µM (inactive),–,> 100 µM (inactive),> 100 µM (inactive),93.1 µM (inactive),> 100 µM (inactive),> 100 µM (inactive),–,> 100 µM (inactive),–,> 100 µM (inactive),> 100 µM (inactive),> 100 µM (inactive),> 100 µM (inactive),> 100 µM (inactive),> 100 µM (inactive),> 100 µM (inactive),> 100 µM (inactive)
O=C1C(=C/C=C2/SC(c3ccccc3)(c3ccccc3)c3ccccc32)C(=O)c2ccccc21,> 100 µM (inactive),> 100 µM (inactive),> 100 µM (inactive),> 100 µM (inactive),> 100 µM (inactive),> 100 µM (inactive),> 100 µM (inactive),> 100 µM (inactive),80.7 µM (inactive),> 100 µM (inactive),> 100 µM (inactive),> 100 µM (inactive),–,> 100 µM (inactive),–,> 100 µM (inactive),> 100 µM (inactive),> 100 µM (inactive),> 100 µM (inactive)
NS(=O)(=O)c1nnc(NS(=O)(=O)c2cccc3cccnc23)s1,> 100 µM (inactive),> 100 µM (inactive),> 100 µM (inactive),> 100 µM (inactive),> 100 µM (inactive),> 100 µM (inactive),> 100 µM (inactive),> 100 µM (inactive),–,> 100 µM (inactive),> 100 µM (inactive),> 100 µM (inactive),> 100 µM (inactive),> 100 µM (inactive),41.9 µM (inactive),> 100 µM (inactive),> 100 µM (inactive),> 100 µM (inactive),> 100 µM (inactive)
O=[N+]([O-])c1ccc(/N=N/c2c(O)ccc3cc(S(=O)(=O)O)ccc23)cc1,> 100 µM (inactive),> 100 µM (inactive),–,> 100 µM (inactive),> 100 µM (inactive),–,> 100 µM (inactive),> 100 µM (inactive),> 100 µM (inactive),> 100 µM (inactive),–,> 100 µM (inactive),> 100 µM (inactive),> 100 µM (inactive),–,> 100 µM (inactive),> 100 µM (inactive),> 100 µM (inactive),–
